In the supplement of paper PMC7023306:
± gives the uncertainty stated by the source.

Assay: TIMS collision cross section in N2 (TIMS CCS N2); higher = larger gas-phase ion size
Conditions: drift gas: N2 (99.4% N2, 0.6% O2), calibration: Stow et al. 2017 values for Agilent ESI-L Low Concentration Tune Mix, ionization: negative ESI
Protocol: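 Authentic plant natural product standards (10-50 ppm in 80% methanol) were analysed by UHPLC (BEH C18, 60 °C) coupled to a Bruker timsTOF Pro in negative ESI with N2 drift gas. TIMS collision cross sections were computed from mobility peak apices after calibration with Agilent Tune Mix using Stow et al. reference values. Values are the average of triplicate runs on different days, reported per annotated ion species (deprotonated ion, adducts, dimer, oxidized ion).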

Structure (SMILES)	TIMS collision cross section in N2 (ion species: [M-H]-) [Å²]	other results
COc1ccc(-c2cc(=O)c3c(O)cc(O[C@@H]4O[C@H](CO[C@@H]5O[C@@H](C)[C@H](O)[C@@H](O)[C@H]5O)[C@@H](O)[C@H](O)[C@H]4O)cc3o2)cc1O [Diosmin]	233.82 ± 0.23	TIMS collision cross section in N2 (ion species: [M-H+Na+HCO2H]-): 247.05 ± 0.28 Å²
O=C1C[C@@H](c2ccc(O)c(O)c2)Oc2cc(O)cc(O)c21 [Eriodictyol]	165.97 ± 0.11	–
Cc1c(O)c(C)c2c(c1O)C(=O)C[C@@H](c1ccc(O)cc1)O2 [Farrerol]	172.28 ± 0.21	TIMS collision cross section in N2 (ion species: [M-H+Na+HCO2H]-): 186.6 ± 0.36 Å²
CC1(C)[C@@H](O[C@H]2O[C@H](C(=O)O)[C@@H](O)[C@H](O)[C@H]2O[C@@H]2O[C@H](C(=O)O)[C@@H](O)[C@H](O)[C@H]2O)CC[C@]2(C)[C@H]3C(=O)C=C4[C@@H]5C[C@@](C)(C(=O)O)CC[C@]5(C)CC[C@@]4(C)[C@]3(C)CC[C@@H]12 [Glycyrrhizic acid]	279.43 ± 0.38	–
CC1(C)CC[C@]2(C(=O)O)CC[C@]3(C)C(=CC[C@@H]4[C@@]5(C)CC[C@H](O)[C@@](C)(CO)[C@@H]5CC[C@]43C)[C@@H]2C1 [Hederagenin]	222.47 ± 0.52	TIMS collision cross section in N2 (ion species: [M-H+Na+HCO2H]-): 234.04 ± 0.57 Å²
CCCCCCCCCCCCCCCCC(=O)O [Heptadecanoic acid]	174.45 ± 0.021	TIMS collision cross section in N2 (ion species: [2M-H]-): 259.04 ± 0.54 Å²
COc1ccc([C@@H]2CC(=O)c3c(O)cc(O)cc3O2)cc1O [Hesperetin]	172.79 ± 0.23	TIMS collision cross section in N2 (ion species: [2M-H]-): 219.76 ± 0.28 Å²
CC(C)=CCC1C(=O)C(C(=O)CC(C)C)=C(O)C(O)(CC=C(C)C)C1=O (stereo not given) [Humulone]	188.57 ± 0.35	–
COc1ccc(-c2oc3c(CC=C(C)C)c(O[C@@H]4O[C@H](CO)[C@@H](O)[C@H](O)[C@H]4O)cc(O)c3c(=O)c2O[C@@H]2O[C@@H](C)[C@H](O)[C@@H](O)[C@H]2O)cc1 [Icariin]	–	TIMS collision cross section in N2 (ion species: [M-H+HCO2H]-): 256.3 ± 1.1 Å²
CC(C)=CCC(=O)C1(O)C(O)=C(C(=O)CC(C)C)C(=O)C1CC=C(C)C (stereo not given) [Isohumulone]	187.14 ± 0.21	–
CC(C)=CCC1=C(O)C(C(=O)CC(C)C)=C(O)C(CC=C(C)C)(CC=C(C)C)C1=O [Lupulone]	201.76 ± 0.7	–
O=c1cc(-c2ccc(O)c(O[C@@H]3OC(CO)[C@@H](O)[C@@H](O)C3O)c2)oc2cc(O[C@@H]3OC(CO)[C@@H](O)[C@@H](O)C3O)cc(O)c12 (stereo not given in full) [Luteolin-7,3'-di-O-glucoside]	236.98 ± 0.087	–
C[C@H]1[C@H](C)CC[C@]2(C(=O)O)CC[C@]3(C)C(=CC[C@@H]4[C@@]5(C)C[C@@H](O)[C@H](O)[C@@](C)(CO)[C@@H]5[C@H](O)C[C@]43C)[C@H]12 [Madecassic acid]	223.91 ± 0.25	–
CCCCCCCCCCCCCC(=O)O [Myristic acid]	162.69 ± 0.1	–
C[C@@H]1O[C@@H](O[C@H]2[C@H](Oc3cc(O)c4c(c3)O[C@H](c3ccc(O)cc3)CC4=O)O[C@H](CO)[C@@H](O)[C@@H]2O)[C@H](O)[C@H](O)[C@H]1O [Naringin]	215.92 ± 0.17	TIMS collision cross section in N2 (ion species: [M-H+Na+HCO2H]-): 220.79 ± 0.26 Å²
COc1ccc([C@@H]2CC(=O)c3c(O)cc(O[C@@H]4O[C@H](CO)[C@@H](O)[C@H](O)[C@H]4O[C@@H]4O[C@@H](C)[C@H](O)[C@@H](O)[C@H]4O)cc3O2)cc1O [Neohesperidin]	226.82 ± 0.1	–
COc1ccc(-c2coc3cc(O[C@@H]4O[C@H](CO)[C@@H](O)[C@H](O)[C@H]4O)ccc3c2=O)cc1 [Ononin (Formononetin 7-O-glucoside)]	–	TIMS collision cross section in N2 (ion species: [M-H+HCO2H]-): 223.35 ± 0.14 Å²
CCCCCCCCCCCCCCCC(=O)O [Palmitic acid]	170.37 ± 0.16	–
CCCCCCCCCCCCCCC(=O)O [Pentadecanoic acid]	166.43 ± 0.15	–
COc1ccc(-c2cc(=O)c3ccc(O)cc3o2)cc1 [Pratol]	–	TIMS collision cross section in N2 (ion species: [2M-H]-): 234 ± 0.056 Å²
C[C@H]1[C@H](C)CC[C@]2(C(=O)O)CC[C@]3(C)C(=CC[C@@H]4[C@@]5(C)C[C@@H](O)[C@@H](O)C(C)(C)[C@@H]5CC[C@]43C)[C@H]12 [Pygenic acid A]	220.9 ± 0.38	–
C[C@H]1[C@H](C)CC[C@]2(C(=O)O)CC[C@]3(C)C(=CC[C@@H]4[C@@]5(C)C[C@@H](O)[C@@H](O)[C@](C)(CO)[C@@H]5CC[C@]43C)[C@H]12 [Pygenic acid B]	225.46 ± 0.32	–
C[C@@H]1O[C@@H](Oc2c(-c3ccc(O)c(O)c3)oc3cc(O)cc(O)c3c2=O)[C@H](O)[C@H](O)[C@H]1O [Quercitrin]	195.84 ± 0.038	TIMS collision cross section in N2 (ion species: [M-H+Na+HCO2H]-): 205.52 ± 0.42 Å²
Oc1ccc(/C=C/c2cc(O)cc(O)c2)cc1 [Resveratrol]	157.41 ± 0.0058	–
C[C@@H]1O[C@@H](OC[C@H]2O[C@@H](Oc3c(-c4ccc(O)c(O)c4)oc4cc(O)cc(O)c4c3=O)[C@H](O)[C@@H](O)[C@@H]2O)[C@H](O)[C@H](O)[C@H]1O [Rutin]	231.06 ± 0.2	TIMS collision cross section in N2 (ion species: [M-3H]-): 219.55 ± 0.41 Å²
O=C(N[C@@H](CSCc1ccccc1)C(=O)O)OCc1ccccc1 [S-Benzyl-N-carbobenzyloxy-L-cysteine]	264.84 ± 0.64	–
O=C(O)[C@H]1O[C@@H](Oc2cc3oc(-c4ccc(O)cc4)cc(=O)c3c(O)c2O)[C@H](O)[C@@H](O)[C@@H]1O [Scutellarein-7-glucuronide]	–	TIMS collision cross section in N2 (ion species: [M-3H]-): 202.76 ± 0.54 Å²

More lines, main results first:

TIMS collision cross section in N2 (ion species: [M-H]-) [Å²]	Structure (SMILES)	other results
185.44 ± 0.18	COc1ccc(-c2cc(=O)c3c(O)c(OC)c(O)cc3o2)cc1OC [Eupatilin]	TIMS collision cross section in N2 (ion species: [M-H+Na+HCO2H]-): 201.78 ± 0.15 Å²
162.38 ± 0.017	O=c1c(O)c(-c2ccc(O)c(O)c2)oc2cc(O)ccc12 [Fisetin]	TIMS collision cross section in N2 (ion species: [M-3H]-): 157.48 ± 0.065 Å²
163.76 ± 0.32	COc1ccc(-c2coc3cc(O)ccc3c2=O)cc1 [Formononetin]	TIMS collision cross section in N2 (ion species: [2M-H]-): 257.46 ± 0.31 Å²
159.89 ± 0.26	O=c1c(-c2ccc(O)cc2)coc2cc(O)cc(O)c12 [Genistein]	TIMS collision cross section in N2 (ion species: [2M-H]-): 249.93 ± 0.16 Å²
212.14 ± 0.076	O=c1c(-c2ccc(O)cc2)coc2cc(O[C@@H]3O[C@H](CO)[C@@H](O)[C@H](O)[C@H]3O)cc(O)c12 [Genistin]	TIMS collision cross section in N2 (ion species: [M-H+HCO2H]-): 220.37 ± 0.15 Å²
166.87 ± 0.13	COc1cc2c(=O)c(-c3ccc(O)cc3)coc2cc1O [Glycitein]	TIMS collision cross section in N2 (ion species: [M-H+Na+HCO2H]-): 184.69 ± 0.23 Å²
165.52 ± 0.17	COc1c(O)cc2oc(-c3ccc(O)cc3)cc(=O)c2c1O [Hispidulin]	–
168.62 ± 0.075	COc1cc([C@@H]2CC(=O)c3c(O)cc(O)cc3O2)ccc1O [Homoeriodictyol]	TIMS collision cross section in N2 (ion species: [M-H+Na+HCO2H]-): 188.05 ± 0.04 Å²
190.48 ± 0.09	COc1ccc(-c2cc(=O)c3c(O)c(OC)c(O)c(OC)c3o2)cc1OC [Hymenoxin]	TIMS collision cross section in N2 (ion species: [M-H+Na+HCO2H]-): 207.1 ± 0.28 Å²
231.11 ± 0.1	C[C@@H]1O[C@@H](OC[C@H]2O[C@@H](Oc3cc(O)c4c(=O)cc(-c5ccc(O)cc5)oc4c3)[C@H](O)[C@@H](O)[C@@H]2O)[C@H](O)[C@H](O)[C@H]1O [Isorhoifolin]	TIMS collision cross section in N2 (ion species: [M-H+Na+HCO2H]-): 237.1 ± 0.28 Å²
217.58 ± 0.11	COc1ccc([C@@H]2CC(=O)c3c(O)cc(O[C@@H]4O[C@H](CO)[C@@H](O)[C@H](O)[C@H]4O)cc3O2)cc1 [Isosakuranin]	TIMS collision cross section in N2 (ion species: [M-H+HCO2H]-): 213.68 ± 0.13 Å²
167.04 ± 0.26	COc1ccc(-c2oc3cc(O)cc(O)c3c(=O)c2O)cc1 [Kaempferide]	–
161.08 ± 0.12	O=c1c(O)c(-c2ccc(O)cc2)oc2cc(O)cc(O)c12 [Kaempferol]	TIMS collision cross section in N2 (ion species: [2M-H]-): 234.8 ± 0.14 Å²
159.28 ± 0.075	O=C1C[C@@H](c2ccc(O)cc2)Oc2cc(O)ccc21 [Liquiritigenin]	TIMS collision cross section in N2 (ion species: [2M-H]-): 202.54 ± 0.082 Å²
160.69 ± 0.18	O=c1cc(-c2ccc(O)c(O)c2)oc2cc(O)cc(O)c12 [Luteolin]	TIMS collision cross section in N2 (ion species: [2M-H]-): 234.87 ± 0.19 Å²
163.01 ± 0.16	O=C1C[C@@H](c2ccc(O)cc2)Oc2cc(O)cc(O)c21 [Naringenin]	–
167.78 ± 0.0071	COc1cc(O)c2c(=O)c(-c3ccc(O)cc3)coc2c1 [Prunetin]	TIMS collision cross section in N2 (ion species: [2M-H]-): 264.09 ± 0.09 Å²
225.59 ± 0.085	C[C@@H]1O[C@@H](O[C@H]2[C@H](Oc3cc(O)c4c(=O)cc(-c5ccc(O)cc5)oc4c3)O[C@H](CO)[C@@H](O)[C@@H]2O)[C@H](O)[C@H](O)[C@H]1O [Rhoifolin]	TIMS collision cross section in N2 (ion species: [M-H+Na+HCO2H]-): 229.74 ± 2.3 Å²
159.52 ± 0.35	O=c1cc(-c2ccc(O)cc2)oc2cc(O)c(O)c(O)c12 [Scutellarein]	TIMS collision cross section in N2 (ion species: [M-3H]-): 156.37 ± 0.57 Å²
